Patent US6159940A, “Method for modulating hemopoiesis” (Immunotech Developments Inc., priority 1999, dated 2000)

Columns and labels:
[1] = test system: lymphocyte subpopulations in peripheral blood; test: Clinical study: hemogram and immune phenotyping in patients with chronic lymphoid leukosis; type: in vivo
Excerpt: The study was continued in groups of patients with immune cytopenias, multiple myeloma, chronic lymphoid leukosis, lymphocytic lymphomas, lymphosarcomas (55 patients). Special attention was paid to the group of patients with P-cellular lymphoid leukosis. The peculiarity of the leukemic B-lymphocyte clone and its relatively vast representation in the peripheral blood of patients with a pronounced secondary immune deficiency makes B-cellular chronic Lymphoid leukosis a unique model for clinical studies of the effect of an immunomodulator.
Immune phenotyping is the most reliable method to determine the changes of ratios of immunocompetent cells in the peripheral blood and lymphocyte-containing organs. The method allows detection of subpopulations by the presence of cellular differentiating antigen structures on lymphocyte surface. For more trustworthy results, some patients were examined using a flow-type cytoflourimeter and monoclonal antibodies. Taking into account the contingent of the patients, the main surface structures to be examined were the following: CD45++CD14-, CD45+CD14-, CD45+CD14+, CD3+CD19-, CD3-CD19+, CD4+CD8-, CD4-CD8+, CD3+HLA- DR+, CD3+CD16,56+, CD34+, CDS+.
The dynamics of CD4+CD8- and CD4-CD8+ (T-helpers and T-suppressers) and the dynamics of other necessary CD-markers were determined in the course of treatment with H-Ile-Glu-Trp-OH. A special attention was paid to CD45++CD14- and CD45+CD14 as they characterize the proportion between normal and leukemic lymphocytes in chronic lymphoid leukosis and illustrate the influence of the immunoactive peptide on the proportion. These peculiarities connected with the characteristics of the disease allow investigation of the molecular mechanism of its genesis. In the case of an immune cytopenia most important are the quantitative ratios of CD45++CD14- and CD45+CD14- to CD4-CD8+, their reliable values can be obtained with the help of a cytofluorimeter.
One ml daily, intranasally, once or twice in divided doses, for 5 days. The course was repeated after a 3-week interval. To those patients who received a cytostatic mono- or polychemotherapy, H-Ile-Glu-Trp-OH was administered from the first day of the break in the cytostatic treatment.

[2] = test system: karyocytes in spleen and thymus; test: Nucleated cell counts in thymus and spleen per mg of organ weight, radiation immunodeficiency; type: in vivo, (CBA×C57BL)F1 mice; conditions: 2 Gy
Experimental: Females and male (CBA×C57BL)F1 mice, aged about 2.5 months weighing about 20 g, were irradiated with gamma-rays using a "Luch-1" apparatus. Immunological activity was assessed according to Jerne (Antibody Forming Cells count--AFC). T-cell count in spleen was determined by the method of spontaneous rosette formation with sheep erythrocytes (E-FRC). The peptide was injected intramuscularly.
Mice were irradiated in a dose of 2 Gy, the peptide was injected in the dose of 10 μg/kg according to the following scheme (to determine T-cell count by the method of spontaneous rosette formation): 1 time--an hour after the irradiation; 2 times--an hour, and a day after irradiation; 3 times--an hour, a day, and two days after the irradiation; 4 times--an hour, a day, two days and three days after the irradiation. The intact mice recieved the peptide 3 or 4 times. The control group (2 Gy) recieved injections of physiological solution according to the same schedule. On completion of the treatment course, 10 mice from each group were immunized with sheep erythrocytes (SE) and 4-5 days later AFC counts were determined in their spleens. The rest of the mice were used to find T-cell count by the method of spontaneous rosette formation. The state of the organs of immune system (spleen and thymus) in mice with radiation immunodeficiency against the background of H-Ile-Glu-Trp-OH treatment was also listed by nucleated cell counts in thymus and spleen per mg of organ weight. AFC/mg Spleen weight is presented as an average of two experiments.

CFU-S = test: Spleen colony formation from RAMBS-treated bone marrow in lethally irradiated mice; type: in vivo, (CBA×C57BL)F1 female mice
Excerpt: (CBA×C57BL)F1 female mice (n=2500), 2-months old, weighing about 20 g, were used in the experiment.
As is known, there is a close relationship between T-cells and hemopoietic progenitors. It was shown that, along with colony-forming units of spleen (CFU-S), thymocytes participate in colony formation of spleens of irradiated mice by controlling proliferation of the hemopoietic progenitor cells. The fact was established in a test system, which allowed a selective removal of accessory T-cells from bone marrow with the help of rabbit antimouse brain antiserum (RAMBS) and their substitution with other factors. Aliquots (0.1 ml) of bone marrow suspension (2×10^7 cells), RAMBS, and medium 199 were mixed and incubated for 1 hour at 37° C. Then the cells were washed with centrifuging, resuspended and injected to lethally irradiated mice.
According to the aforesaid scheme, instead of thymocytes mice received the peptide, H-Ile-Glu-Trp-OH injections 30 minutes before the injections of RAMBS-treated bone marrow suspension.

[3] = Patient 0., * % of cells in mixed population of CD45++CD14- and CD45+CD14-
[4] = Patient S., * % of cells in the CD45+CD14- subpopulation

H-Ile-Glu-Trp-OH
% of Cells after H-Ile-Glu-Trp-OH Treatment, CD45++CD14- lymphocytes ([1]; Patient 0.): 28% | % of Cells after H-Ile-Glu-Trp-OH Treatment, CD45+CD14+ monocytes ([1]; Patient 0.): 3.6% | % of Cells after H-Ile-Glu-Trp-OH Treatment, CD45+CD14- granulocytes ([1]; Patient 0.): 63.8% | Absolute Count after treatment, CD45++CD14- lymphocytes ([1]; Patient 0.): 5.8 bln/l | number of cells with CD45++CD14- markers after treatment ([1]; Patient 0.): grew three times | Lymphocytes absolute after treatment course ([1]; Patient 0. (before: 11.2)): 15.4 blnd | leukocytes after treatment course ([1]; Patient 0. (before: 17.3)): 20.8 blnd | Lymphocytes after treatment course ([1]; Patient 0. (before: 65)): 74% | % of Cells after H-Ile-Glu-Trp-OH Treatment, CD4+CD8- T-helpers [1, 3]: 8.2% | % of Cells after H-Ile-Glu-Trp-OH Treatment, CD4-CD8+ T-suppressers [1, 3]: 8.1% | CD4+/CD8+ ratio after H-Ile-Glu-Trp-OH Treatment ([1]; Patient 0., * mixed population of CD45++CD14- and CD45+CD14-): 1.0 | % of Cells after H-Ile-Glu-Trp-OH Treatment, CD45++CD14- lymphocytes ([1]; Patient B.): 9.5% | % of Cells after H-Ile-Glu-Trp-OH Treatment, CD45+CD14+ monocytes ([1]; Patient B.): 2.1% | % of Cells after H-Ile-Glu-Trp-OH Treatment, CD45+CD14- granulocytes ([1]; Patient B.): 86.4% | Absolute Count after treatment, CD45++CD14- lymphocytes ([1]; Patient B.): 2.52 bln/l | Lymphocytes absolute after treatment ([1]; Patient B. (before: 18.7)): 21.8 bln/1 | leukocytes after treatment ([1]; Patient B. (before: 23,0)): 26.6 bin/1 | Lymphocytes after treatment ([1]; Patient B. (before: 85)): 82% | % of Cells after H-Ile-Glu-Trp-OH Treatment, CD3+CD19- T-lymphocytes ([1]; Patient B., marked *): 10.6% | % of Cells after H-Ile-Glu-Trp-OH Treatment, CD3+HLA-DR+ activated T-lymphoc. ([1]; Patient B., marked *): 1.31% | % of Cells after H-Ile-Glu-Trp-OH Treatment, CD3-CD19+ B-lymphocytes ([1]; Patient B., marked *): 85.3% | % of Cells after H-Ile-Glu-Trp-OH Treatment, CD4+CD8- T-helpers ([1]; Patient B., marked *): 6.4% | % of Cells after H-Ile-Glu-Trp-OH Treatment, CD4-CD8+ T-suppressers ([1]; Patient B., marked *): 3.8% | CD4+/CD8+ ratio after H-Ile-Glu-Trp-OH Treatment ([1]; Patient B., marked *): 1.7 | % of Cells after H-Ile-Glu-Trp-OH Treatment, CD3+CD19- T-lymphocytes ([1]; Patient M.): 35.6% | % of Cells after H-Ile-Glu-Trp-OH Treatment, CD3-CD19+ B-lymphocytes ([1]; Patient M.): 61.2% | % of Cells after H-Ile-Glu-Trp-OH Treatment, CD4+CD8- T-helpers ([1]; Patient M.): 11.6% | % of Cells after H-Ile-Glu-Trp-OH Treatment, CD4-CD8+ T-suppressers ([1]; Patient M.): 30.6% | % of Cells after H-Ile-Glu-Trp-OH Treatment, CD45++CD14- lymphocytes ([1]; Patient M.): 43.2% | % of Cells after H-Ile-Glu-Trp-OH Treatment, CD45+CD14+ monocytes ([1]; Patient M.): 4.5% | % of Cells after H-Ile-Glu-Trp-OH Treatment, CD45+CD14- granulocytes ([1]; Patient M.): 47.7% | Absolute Count after treatment, CD45++CD14- lymphocytes ([1]; Patient M.): 3.715 bln/l | CD4+/CD8+ ratio after H-Ile-Glu-Trp-OH Treatment ([1]; Patient M.): 0.4 | Lymphocytes absolute after treatment course ([1]; Patient M. (before: 3.24)): 3.62 bln/1 | leukocytes after treatment course ([1]; Patient M. (before: 7.9)): 8.6 blnA | Lymphocytes after treatment course ([1]; Patient M. (before: 41)): 42% | % of Cells after H-Ile-Glu-Trp-OH Treatment, CD3+CD19- T-lymphocytes ([1]; Patient S.): 52.0% | % of Cells after H-Ile-Glu-Trp-OH Treatment, CD3+HLA-DR+ activated T-lymphoc. ([1]; Patient S.): 16.0% | % of Cells after H-Ile-Glu-Trp-OH Treatment, CD3-CD19+ B-lymphocytes ([1]; Patient S.): 40.0% | % of Cells after H-Ile-Glu-Trp-OH Treatment, CD4+CD8- T-helpers ([1]; Patient S.): 27.1% | % of Cells after H-Ile-Glu-Trp-OH Treatment, CD4-CD8+ T-suppressers ([1]; Patient S.): 36.5% | % of Cells after H-Ile-Glu-Trp-OH Treatment, CD45++CD14- lymphocytes ([1]; Patient S.): 13.5% | % of Cells after H-Ile-Glu-Trp-OH Treatment, CD45+CD14+ monocytes ([1]; Patient S.): 0.8% | % of Cells after H-Ile-Glu-Trp-OH Treatment, CD45+CD14- granulocytes ([1]; Patient S.): 78.0% | Absolute Count after treatment, CD45++CD14- lymphocytes ([1]; Patient S.): 9.112 bln/l | CD4+/CD8+ ratio after H-Ile-Glu-Trp-OH Treatment ([1]; Patient S.): 0.7 | Lymphocytes absolute after treatment course ([1]; Patient S. (before: 48.04)): 58.06 bln/1 | leukocytes after treatment course ([1]; Patient S. (before: 57.2)): 67.5 bin/1 | Lymphocytes after treatment course ([1]; Patient S. (before: 84)): 86% | count of lymphocytes belonging to the population of conventionally normal lymphocytes ([1]; Patient S., after the treatment): doubled | % of Cells after H-Ile-Glu-Trp-OH Treatment, CD3+CD19- T-lymphocytes [1, 4]: 2.6% | % of Cells after H-Ile-Glu-Trp-OH Treatment, CD3+HLA-DR+ activated T-lymphoc. [1, 4]: 0.5% | % of Cells after H-Ile-Glu-Trp-OH Treatment, CD3-CD19+ B-lymphocytes [1, 4]: 96.9% | % of Cells after H-Ile-Glu-Trp-OH Treatment, CD4+CD8- T-helpers [1, 4]: 1.6% | % of Cells after H-Ile-Glu-Trp-OH Treatment, CD4-CD8+ T-suppressers [1, 4]: 1.9% | CD4+/CD8+ ratio after H-Ile-Glu-Trp-OH Treatment ([1]; Patient S., * in the CD45+CD14- subpopulation): 0.5 | Karyocyte Count, Spleen ([2]; 1 Injection): 1120 ± 73 10^3 /mg | Karyocyte Count, Thymus ([2]; 1 Injection): 1860 ± 200 10^3 /mg | Karyocyte Count, Spleen ([2]; 2 Injection): 890 ± 80 10^3 /mg | Karyocyte Count, Thymus ([2]; 2 Injection): 1840 ± 380 10^3 /mg | Karyocyte Count, Spleen ([2]; 3 Injection): 980 ± 80 10^3 /mg | Karyocyte Count, Thymus ([2]; 3 Injection): 2590 ± 400 10^3 /mg | Karyocyte Count, Spleen ([2]; 4 Injection): 1160 ± 100 10^3 /mg | Karyocyte Count, Thymus ([2]; 4 Injection): 2480 ± 280 10^3 /mg | Average Colony Count (CFU-S; RAMBS-treated bone marrow + preparation, lethally irradiated mice): 6,3 ± 0,4 | increase of colony yields as compared to RAMBS-treated bone marrow (CFU-S; mouse, in vivo): 2-3 times
